Measurements taken from US20170152245A1 (National Taiwan University, priority 2015, published 2017).
Values belong to the compound of their own block, whether it stands above or below them.

Columns and labels:
Thromboxane synthase = biological target: T1, Thromboxane synthase (Homo sapiens, UniProt P24557); settings: cited from earlier work; for Thromboxane synthase: Table III arrows, reference drugs
T1 construct: MDS
T1 sequence (P24557 1-533): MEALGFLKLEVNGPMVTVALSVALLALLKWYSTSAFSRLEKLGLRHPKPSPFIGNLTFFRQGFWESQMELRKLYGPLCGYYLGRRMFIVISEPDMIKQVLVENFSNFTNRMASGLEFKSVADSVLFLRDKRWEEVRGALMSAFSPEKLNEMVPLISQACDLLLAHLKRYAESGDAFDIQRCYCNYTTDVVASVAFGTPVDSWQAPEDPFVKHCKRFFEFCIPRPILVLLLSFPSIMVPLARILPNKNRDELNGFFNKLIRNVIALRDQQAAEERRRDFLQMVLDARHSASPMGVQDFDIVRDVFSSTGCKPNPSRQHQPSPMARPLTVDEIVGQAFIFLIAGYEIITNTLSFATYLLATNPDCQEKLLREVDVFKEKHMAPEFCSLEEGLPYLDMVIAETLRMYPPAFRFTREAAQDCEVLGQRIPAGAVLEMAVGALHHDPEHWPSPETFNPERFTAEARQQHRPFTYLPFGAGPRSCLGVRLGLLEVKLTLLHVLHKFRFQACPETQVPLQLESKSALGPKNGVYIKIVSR

thromboxane receptor = biological target: T2, thromboxane receptor (Homo sapiens, UniProt P21731); settings: cited from earlier work; for Thromboxane receptor: Table III arrows, reference drugs
T2 sequence (P21731 1-343): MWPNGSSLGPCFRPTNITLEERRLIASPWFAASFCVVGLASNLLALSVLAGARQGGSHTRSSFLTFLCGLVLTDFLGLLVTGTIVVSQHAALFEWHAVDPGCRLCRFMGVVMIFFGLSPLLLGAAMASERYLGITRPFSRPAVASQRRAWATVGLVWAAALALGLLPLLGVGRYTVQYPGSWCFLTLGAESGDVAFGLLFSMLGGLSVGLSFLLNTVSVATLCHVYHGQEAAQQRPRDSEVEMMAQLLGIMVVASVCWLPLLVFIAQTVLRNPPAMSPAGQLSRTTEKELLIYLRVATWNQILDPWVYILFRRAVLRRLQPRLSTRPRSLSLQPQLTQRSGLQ

[1] = system: human platelet suspension; assay: Collagen-induced platelet aggregation in human platelet suspension; assay type: cell-based; settings: collagen 10 μg/ml; for % inhibition collagen: human platelet suspension, preliminary, compound concentration not given
Protocol: (§1) Human platelet suspension (PS) was prepared according to the method described previously. Briefly, blood sample, freshly obtained from healthy volunteers who had taken no medications during the preceding 2 weeks, was treated with acid citrate/dextrose (ACD) in a volume ratio of 9:1. After centrifugation at 120 g, 25° C. for 9 min, platelet-rich plasma was transferred into another plastic tube and incubated with heparin (6.4 U/ml) as well as prostaglandin E1 (1 μM). Platelets were spun down by centrifugation at 500 g, 25° C. for 8 min and subsequently washed two times with Tyrode solution (NaH2PO4 0.4 mM; NaCl 136.9 mM; KCl […]; NaHCO3 11.9 mM; CaCl2 2 mM; MgCl2 2.1 mM; glucose 11.1 mM; BSA 3.5 mg/ml; pH 7.35-7.4). The washed platelets were finally suspended in Tyrode's solution and the platelet count was adjusted to 3.75×10^8 platelets/ml. For platelet-rich plasma (PRP) preparation, whole blood was anticoagulated with 1/10 vol of sodium citrate (3.8%, w/v) and centrifuged at 150 g, 25° C. for 9 min.
(§2) Platelet aggregation was measured turbidimetrically with a Lumi-aggregometer (Payton Scientific) at 37° C. under stirring condition (900 rpm). Platelet suspensions were prewarmed to 37° C. for 2 min in a silicone-treated glass cuvette. Nstpbp5185 was added 3 min before the addition of platelet-aggregation inducers. The extent of platelet aggregation was determined by recording the increase of light transmission relative to that of control (maximal aggregation, as 100%) for 6 min after the addition of inducer. The final volume and platelet count for measuring platelet aggregation were 500 μl and 3×10^8/ml, respectively.

[2] = system: human platelet suspension; assay: ADP-induced platelet aggregation in human platelet suspension; assay type: cell-based; settings: human platelet suspension; preliminary; compound concentration not given
Protocol: as §1, §2

[3] = system: human platelet suspension; assay: U46619-induced platelet aggregation in human platelet suspension; assay type: cell-based; settings: for IC50: Homo sapiens, Platelet, U46619-induced aggregation, platelet suspension, read-out: P.S(U46619) IC50
Protocol: as §1, §2

Cox-1,-2 = settings: Table III arrows, reference drugs; cited from earlier work
rats = assay: Gastric damage in rats; assay type: in vivo; settings: 150 μg g^−1 oral, 3 h
Protocol: Rats (Wistar) were fasted overnight then given aspirin at dose of 150 mg/kg or nstpbp5185 at 40 mg/kg. Both drugs were suspended in 1% carboxymethylcellulose. Three hours later, the rats were sacrificed, the stomach excised, and the extent of hemorrhagic erosions scored by an observer unaware of treatment the rats received. Each lesion larger than 2 mm was counted for comparison. The stomach was fixed in formalin (pH, 7.4) and photographed.

[4] = system: mesenteric venules of mice; assay: Fluorescein sodium-induced platelet thrombus formation in mesenteric venules of mice; assay type: in vivo
Protocol: A modification of the method was used. Male ICR mice (12-14 g) were anesthetized with sodium pentobarbital (50 mg/kg, i.p.). […] Five min later, various doses of nstpbp5185 (2 and 4 μg/g), aspirin (150 and 250 μg/g), or DMSO (control) were administered by i.v. through other lateral tail vein. The injected volume of the nstpbp5185, aspirin, or DMSO (control) was smaller than 10 μl. A segment of the small intestine with its mesentery attached was exteriorized through a midline incision on the abdominal wall and placed onto a transparent plastic plate for microscopic observation. Frequent rinsing of the mesentery with warm isotonic saline kept at 37° C. was performed to prevent the mesentery from drying out. Microvessels in the mesentery were observed under transillumination from a halogen lamp. Venules with diameters of 30-40 μm were selected to be irradiated to produce a microthrombus. In the epi-illumination system, light from a 100-W mercury lamp was filtered through a filter (B-2A, Nikon, Tokyo, Japan) with a dichromic mirror (DM 510, Nikon). The filtered light eliminated wavelengths below 520 nm irradiated a microvessel through an objective lens (20×). The area of irradiation was about 100 μm in diameter on the focal plane. Ten minutes after administration of the dye, the irradiation by filtered light and a timer were simultaneously started, and thrombus formation was observed on a TV-monitor. Occlusion time was recorded as the time interval for inducing thrombus formation leading to cessation of blood flow.
After giving 50 μg/g fluorescein sodium, the irradiation of mesenteric venules induced thrombus formation which is consist of activated platelets and fibrin clots. […] In the vehicle-treated group, the average TTO was approximately 143.71±4.99 sec (n=17). The group pre-treated with compound 5185 (10 μg/g), the average TTO value was 208.67±6.99 sec (n=12).

PGI2 formation = settings: Table III arrows, reference drugs; cited from earlier work
[5] = system: human platelet suspension; assay: Arachidonic acid-induced platelet aggregation in human platelet suspension; assay type: cell-based; settings: AA 200 μM
Protocol: as §1, §2

[6] = system: human platelet suspension; assay: Thromboxane B2 formation in human platelet suspension; assay type: cell-based; settings: Homo sapiens, Platelet; collagen-activated platelets; 500 μM; read-out: inhibition of TXB2 formation
Protocol: Human platelet suspension (3.75×10^8/ml) was preincubated in the presence or absence of nstpbp5185 or aspirin for 3 min before the addition of collagen or AA. Six minutes after the addition of agonist, […] indomethacin and 2 mM EDTA were added to the reaction suspension. After centrifugation in an Eppendorf centrifuge at 14,000 g for 2 min, the thromboxane B2 (TXB2), the stable metabolite of TXA2, levels of the supernatant were measured using a competitive enzyme-immuno assay (EIA) kit according to the instructions of the manufacturer.

mice carotid artery = assay: FeCl3-induced thrombus formation in mice carotid artery; assay type: in vivo; settings: for time to FeCl3-induced occlusion: heparin 10 U kg^−1 or aspirin 40 μg g^−1 i.v.; for FeCl3-induced thrombus formation: heparin 100 U kg^−1 or aspirin 80 μg g^−1 i.v.
Protocol: FIG. 14 The antithrombotic activity of nstpbp5185 in FeCl3-induced thrombi formation in mice carotid artery. (A) Mice were intravenously administered with Heparin (10 or 100 U kg^−1), Aspirin (40 or 80 μg g^−1), or different doses of nstpbp5185 (B). After 5 min, FeCl3 injury was induced by a filter paper saturated with ferric chloride solution (10%). After removal of the paper, carotid blood flow (ml min^−1) was monitored continuously until thromboembolism formation or for 60 min. (C) Mice were orally administered with different doses of Aspirin and nstpbp5185 (D). Both drugs were suspended in 1% CMC. Blood flow monitoring were recorded used analyzed Labchart software (AD instruments). Data are presented as the mean±SEM (n≧3). **P<0.01 and ***P<0.001 as compared with the vehicle control (DMSO).
Mice were intravenously or orally administered with different doses of nstpbp5185.

[7] = system: human platelet-rich plasma; assay: Collagen-induced platelet aggregation in human platelet-rich plasma; assay type: cell-based; settings: human PRP, data not shown, read-out: IC50 collagen-induced platelet aggregation in human PRP
Protocol: as §1, §2

Compound: Cc1ccc2c(c1CCC(=O)O)CC[C@@H](NS(=O)(=O)c1ccc(Cl)cc1)C2 [Example S18886]
- Thromboxane synthase (Thromboxane synthase): ↓
- Thromboxane receptor (thromboxane receptor): ↓

Compound: COc1cccc(Cn2c(-c3ccc(C)o3)nc3ccccc32)c1 [Example 6]
- % inhibition collagen [1]: 19.1%
- % inhibition ADF [2]: 41.4 (n = 2) %

Compound: Cc1ccc(Cn2c(-c3ccc(C)o3)nc3ccccc32)cc1 [Example 9, 1-(p-Methylbenzyl)-2-(5-methyl-2-furyl)benzimidazole]
- % inhibition collagen [1]: 1.1%
- IC50 [3]: 4.63 µM
- % inhibition ADF [2]: 17.4 (n = 3) %

Compound: O=C(O)CCCCO/N=C(/c1cccnc1)c1cccc(C(F)(F)F)c1 [Ridogrel]
- PGI2 formation (PGI2 formation): ↑
- Thromboxane synthase (Thromboxane synthase): ↓
- IC50 (Thromboxane synthase; reference drug): 0.001 µM
- Thromboxane receptor (thromboxane receptor): ↓
- IC50 (thromboxane receptor; reference drug): 1 µM

Compound: Cc1ccc(-c2nc3ccccc3n2Cc2ccccn2)o1 [Example 22, 1-(2-Picoyl)-2-(5-methyl-2-furyl)benzimidazole]
- IC50 [3]: 4.29 µM

Compound: heparin
- time to FeCl3-induced occlusion (mice carotid artery): about 10 min
- FeCl3-induced thrombus formation (mice carotid artery): blocked

Compound: Cc1ccc(-c2nc3ccccc3n2Cc2ccccc2F)o1 [Example 13, 1-(o-Fluorobenzyl)-2-(5-methyl-2-furyl)benzimidazole]
- IC50 [3]: 13.1 µM

Continued, in another order:

- IC50 ([1]; Platelet, washed human platelets, read-out: IC50 collagen-induced platelet aggregation in human PS): ~190 µM
- IC50 [5]: 313 ± 18.7 µM
- IC50 [7]: 5100 ± 700 µM
Compound: CC(=O)Oc1ccccc1C(=O)O [aspirin, reference compound]
- Cox-1,-2 (Cox-1,-2): ↓
- gastric lesions (>2 mm) (rats): marked lesions
- occlusion time ([4]; 250 μg g^−1 i.v.): 175.5 ± 25.3 s
- occlusion time at return to control, within 60 min ([4]; 250 μg g^−1 i.v.): 82.6 ± 9.4 s
- occlusion time within 40 min after administration ([4]; 250 μg g^−1 i.v.): 155.0 ± 7.1 s
- time until occlusion time returned to the control value ([4]; 250 μg g^−1 i.v.): ≤ 60 min
- change of occlusion time ([4]; low dose (below 250 μg g^−1)): did not significantly change
- PGI2 formation (PGI2 formation): ↓
- effect on U46619-induced platelet aggregation ([3]; 500 μM, data not shown): no effect
- inhibition at 500 µM [6]: 96%
- time to FeCl3-induced occlusion (mice carotid artery): about 10 min
- FeCl3-induced thrombus formation (mice carotid artery): blocked

- IC50 [3]: 14.6 µM
Compound: Cc1cccc(Cn2c(-c3ccc(C)o3)nc3cc(F)ccc32)c1 [Example 40a, 5-fluoro-1-(3-methylbenzyl)-2-(5-methyl-2-furyl)benzimidazole]

- IC50 [3]: 32.2 µM
Compound: COc1ccc(Cn2c(-c3ccc(C)o3)nc3ccc(F)cc32)cc1 [Example 34b, 6-fluoro-1-(4-methoxybenzyl)-2-(5-methyl-2-furyl)benzimidazole]

- IC50 [3]: 52.1 µM
Compound: Cc1ccc(-c2nc3cc(F)ccc3[nH]2)o1 [Example 30]

- IC50 [3]: 5.55 µM
Compound: Cc1ccc(-c2nc3cc(Cl)ccc3n2Cc2cccc(F)c2)o1 [Example 47a, 5-chloro-1-(3-fluorobenzyl)-2-(5-methyl-2-furyl)benzimidazole]

- IC50 [3]: 6.98 µM
Compound: Cc1ccc(-c2nc3cc(Cl)c(Cl)cc3n2Cc2ccccc2)o1 [Example 54a, 1-Benzyl-5,6-dichloro-2-(5-methyl-2-furyl)benzimidazole]

- IC50 [3]: 29.6 µM
Compound: COc1ccc(Cn2c(-c3ccc(C)o3)nc3ccc(Cl)cc32)cc1 [Example 49b, 6-chloro-1-(4-methoxybenzyl)-2-(5-methyl-2-furyl)benzimidazole]

- IC50 [3]: > 50 µM
Compound: Cc1ccc(-c2nc3cc(Cl)c(Cl)cc3n2Cc2ccccc2[N+](=O)[O-])o1 [Example 57, 5,6-dichloro-1-(2-nitrobenzyl)-2-(5-methyl-2-furyl)benzimidazole]

- IC50 [3]: 2.61 µM
Compound: Cc1ccc(-c2nc3cc(F)ccc3n2Cc2ccccc2C)o1 [Example 41a, 5-fluoro-1-(2-methylbenzyl)-2-(5-methyl-2-furyl)benzimidazole]

- IC50 [3]: 17.2 µM
Compound: Cc1ccc(-c2nc3ccc(C(=O)c4ccccc4)cc3n2Cc2ccccc2)o1 [Example 69a, 1-Benzyl-6-benzoyl-2-(5-methyl-2-furyl)benzimidazole]

- IC50 [3]: 19.2 µM
Compound: Cc1ccc(-c2nc3ccc(C(=O)c4ccccc4)cc3n2Cc2cccc(Cl)c2)o1 [Example 74, 6-benzoyl-1-(3-chlorobenzyl)-2-(5-methyl-2-furyl)benzimidazole]
